Test results as given in patent US11109593B2, “Isoxazolin-5-one derivative and herbicide containing same as active ingredient” (HOKKO CHEMICAL INDUSTRY CO., LTD., priority 2017, dated 2021).

Experiments:
Type in all cases: in vivo
Echinochloa crus-galli [1] = assay: Test Example 3: herbicidal effect test by treatment of dry field farming soil (one day after seeding); details: 120 g/10a active ingredient, evaluated 14 days after treatment
Procedure, shortened: (§1)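 Seeds (20 each) mixed into top 1 cm of alluvium in pots, surface pressed. One day later, diluted emulsion sprayed onto soil, 100 L/10 a, 120 g a.i./10 a. Dry weight at 14 d vs untreated gave % herbicidal rate; n=2.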

Chenopodium album [2] = assay: as above; details: 120 g/10a active ingredient, evaluated 14 days after treatment
Procedure, shortened: as §1

Amaranthus viridis [3] = assay: as above; details: 120 g/10a active ingredient, evaluated 14 days after treatment
Procedure, shortened: as §1

southern crabgrass [4] = assay: as above; details: 120 g/10a active ingredient, evaluated 14 days after treatment
Procedure, shortened: as §1

Echinochloa crus-galli [5] = assay: Test Example 4: herbicidal effect test by treatment of leave and stem in dry field farming (seven days after seeding); details: 120 g/10a active ingredient; emulsion sprayed seven days after seeding; evaluated 14 days after treatment
Procedure, shortened: (§2)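 Duplicate pots were scored 14 days post-spray by dry weight, herbicidal rate = {1 − treated/untreated average dry weight} × 100. The water-diluted emulsion, equivalent to 120 g active ingredient per 10 ares in 100 L, was applied seven days after sowing 20 seeds each into the upper 1 cm of alluvial soil.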

Chenopodium album [6] = assay: as above; details: 120 g/10a active ingredient; emulsion sprayed seven days after seeding; evaluated 14 days after treatment
Procedure, shortened: as §2

Amaranthus viridis [7] = assay: as above; details: 120 g/10a active ingredient; emulsion sprayed seven days after seeding; evaluated 14 days after treatment
Procedure, shortened: as §2

southern crabgrass [8] = assay: as above; details: 120 g/10a active ingredient; emulsion sprayed seven days after seeding; evaluated 14 days after treatment
Procedure, shortened: as §2

[9] = tested on: broad leaf weeds (Lindernia pyxidaria and Monochoria vaginalis); assay: Test Example 2: herbicidal effect test by treatment during growing period in paddy rice cultivation (seven days after seeding); details: 120 g/10a active ingredient, assessed 14 days after treatment, dry weight vs untreated area
Procedure, shortened: (§3)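 Herbicidal rate = (1 − treated/untreated mean dry weight) × 100, scored 14 days after application, two replicates per rate. Treatment: diluted emulsion dropped onto paddy water seven days after sowing, 120 g active ingredient per 10 ares, in a glass greenhouse.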

Echinochloa crus-galli [10] = assay: as above; details: 120 g/10a active ingredient, assessed 14 days after treatment, dry weight vs untreated area
Procedure, shortened: as §3

Scirpus juncoides [11] = assay: as above; details: 120 g/10a active ingredient, assessed 14 days after treatment, dry weight vs untreated area
Procedure, shortened: as §3

[12] = tested on: broad leaf weeds (Lindernia pyxidaria and Monochoria vaginalis); assay: Test Example 1: herbicidal effect test by treatment of rice paddy soil (immediately after seeding); details: 120 g/10a active ingredient, dry weight vs untreated area, 14 days after treatment
Procedure, shortened: (§4)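 Applied at 120 g a.i./10 ares as diluted emulsion dropped into flooded (~3 cm) paddy soil pots right after sowing seeds 0–1 cm deep; greenhouse, two replicates. At day 14, dry weight of treated versus untreated plants gives % herbicidal rate.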

Echinochloa crus-galli [13] = assay: as above; details: 120 g/10a active ingredient, dry weight vs untreated area, 14 days after treatment
Procedure, shortened: as §4

Scirpus juncoides [14] = assay: as above; details: 120 g/10a active ingredient, dry weight vs untreated area, 14 days after treatment
Procedure, shortened: as §4

## CCC(CC)Cn1oc(=O)c(Cc2ccccc2N(S(=O)(=O)C(F)(F)F)S(=O)(=O)C(F)(F)F)c1C [Compound 1-973]
Echinochloa crus-galli [1]
  herbicidal rate, Echinochloa crus-galli: 100%
Chenopodium album [2]
  herbicidal rate, Chenopodium album: 90%
Amaranthus viridis [3]
  herbicidal rate, Amaranthus viridis: 90%
Southern crabgrass [4]
  herbicidal rate, southern crabgrass: 100%
Echinochloa crus-galli [5]
  herbicidal effect (herbicidal rate), Echinochloa crus-galli: 90%
Chenopodium album [6]
  herbicidal effect (herbicidal rate), Chenopodium album: 0%
Amaranthus viridis [7]
  herbicidal effect (herbicidal rate), Amaranthus viridis: 40%
Southern crabgrass [8]
  herbicidal effect (herbicidal rate), southern crabgrass: 80%
[9]
  Herbicidal rate (%) Lindernia pyxidaria: 60%
  Herbicidal rate (%) Monochoria vaginalis: 90%
Echinochloa crus-galli [10]
  Herbicidal rate (%) Echinochloa crus-galli: 100%
Scirpus juncoides [11]
  Herbicidal rate (%) Scirpus juncoides: 90%
[12]
  Herbicidal rate (%) Lindernia pyxidaria: 100%
  Herbicidal rate (%) Monochoria vaginalis: 80%
Echinochloa crus-galli [13]
  Herbicidal rate (%) Echinochloa crus-galli: 100%
Scirpus juncoides [14]
  Herbicidal rate (%) Scirpus juncoides: 100%

## CCC(C)Cn1oc(=O)c(Cc2ccccc2N(C(=O)OCc2ccccc2)S(=O)(=O)C(F)(F)F)c1C (single isomer, unassigned) [1-789 (TLC bottom)]
Echinochloa crus-galli [1]
  herbicidal rate, Echinochloa crus-galli: 90%
Chenopodium album [2]
  herbicidal rate, Chenopodium album: 80%
Amaranthus viridis [3]
  herbicidal rate, Amaranthus viridis: 70%
Southern crabgrass [4]
  herbicidal rate, southern crabgrass: 60%
Echinochloa crus-galli [5]
  herbicidal effect (herbicidal rate), Echinochloa crus-galli: 50%
Chenopodium album [6]
  herbicidal effect (herbicidal rate), Chenopodium album: 40%
Amaranthus viridis [7]
  herbicidal effect (herbicidal rate), Amaranthus viridis: 60%
Southern crabgrass [8]
  herbicidal effect (herbicidal rate), southern crabgrass: 50%
[9]
  Herbicidal rate (%) Lindernia pyxidaria: 60%
  Herbicidal rate (%) Monochoria vaginalis: 90%
Echinochloa crus-galli [10]
  Herbicidal rate (%) Echinochloa crus-galli: 100%
Scirpus juncoides [11]
  Herbicidal rate (%) Scirpus juncoides: 90%
[12]
  Herbicidal rate (%) Lindernia pyxidaria: 90%
  Herbicidal rate (%) Monochoria vaginalis: 90%
Echinochloa crus-galli [13]
  Herbicidal rate (%) Echinochloa crus-galli: 100%
Scirpus juncoides [14]
  Herbicidal rate (%) Scirpus juncoides: 90%

## Cc1c(Cc2ccccc2N(S(=O)(=O)C(F)(F)F)S(=O)(=O)C(F)(F)F)c(=O)on1CCC(C)(C)C [Compound 1-975]
Echinochloa crus-galli [1]
  herbicidal rate, Echinochloa crus-galli: 80%
Chenopodium album [2]
  herbicidal rate, Chenopodium album: 90%
Amaranthus viridis [3]
  herbicidal rate, Amaranthus viridis: 90%
Southern crabgrass [4]
  herbicidal rate, southern crabgrass: 90%
Echinochloa crus-galli [5]
  herbicidal effect (herbicidal rate), Echinochloa crus-galli: 50%
Chenopodium album [6]
  herbicidal effect (herbicidal rate), Chenopodium album: 40%
Amaranthus viridis [7]
  herbicidal effect (herbicidal rate), Amaranthus viridis: 50%
Southern crabgrass [8]
  herbicidal effect (herbicidal rate), southern crabgrass: 0%
[9]
  Herbicidal rate (%) Lindernia pyxidaria: 70%
  Herbicidal rate (%) Monochoria vaginalis: 80%
Echinochloa crus-galli [10]
  Herbicidal rate (%) Echinochloa crus-galli: 100%
Scirpus juncoides [11]
  Herbicidal rate (%) Scirpus juncoides: 80%
[12]
  Herbicidal rate (%) Lindernia pyxidaria: 90%
  Herbicidal rate (%) Monochoria vaginalis: 80%
Echinochloa crus-galli [13]
  Herbicidal rate (%) Echinochloa crus-galli: 100%
Scirpus juncoides [14]
  Herbicidal rate (%) Scirpus juncoides: 90%

## COC(=O)N(c1ccccc1Cc1c(C)n(CCSC)oc1=O)S(=O)(=O)C(F)(F)F [Compound 1-592]
Echinochloa crus-galli [1]
  herbicidal rate, Echinochloa crus-galli: 90%
Chenopodium album [2]
  herbicidal rate, Chenopodium album: 90%
Amaranthus viridis [3]
  herbicidal rate, Amaranthus viridis: 90%
Southern crabgrass [4]
  herbicidal rate, southern crabgrass: 90%
Echinochloa crus-galli [5]
  herbicidal effect (herbicidal rate), Echinochloa crus-galli: 90%
Chenopodium album [6]
  herbicidal effect (herbicidal rate), Chenopodium album: 40%
Amaranthus viridis [7]
  herbicidal effect (herbicidal rate), Amaranthus viridis: 40%
Southern crabgrass [8]
  herbicidal effect (herbicidal rate), southern crabgrass: 90%
[9]
  Herbicidal rate (%) Lindernia pyxidaria: 90%
  Herbicidal rate (%) Monochoria vaginalis: 90%
Echinochloa crus-galli [10]
  Herbicidal rate (%) Echinochloa crus-galli: 90%
Scirpus juncoides [11]
  Herbicidal rate (%) Scirpus juncoides: 90%
[12]
  Herbicidal rate (%) Lindernia pyxidaria: 90%
  Herbicidal rate (%) Monochoria vaginalis: 90%
Echinochloa crus-galli [13]
  Herbicidal rate (%) Echinochloa crus-galli: 90%
Scirpus juncoides [14]
  Herbicidal rate (%) Scirpus juncoides: 90%

## CCC(=O)N(c1ccccc1Cc1c(C)n(C(C)c2ccccc2)oc1=O)S(=O)(=O)C(F)(F)F (stereo not shown) [Compound 1-321]
Echinochloa crus-galli [1]
  herbicidal rate, Echinochloa crus-galli: 90%
Chenopodium album [2]
  herbicidal rate, Chenopodium album: 90%
Amaranthus viridis [3]
  herbicidal rate, Amaranthus viridis: 90%
Southern crabgrass [4]
  herbicidal rate, southern crabgrass: 90%
Echinochloa crus-galli [5]
  herbicidal effect (herbicidal rate), Echinochloa crus-galli: 90%
Chenopodium album [6]
  herbicidal effect (herbicidal rate), Chenopodium album: 40%
Amaranthus viridis [7]
  herbicidal effect (herbicidal rate), Amaranthus viridis: 40%
Southern crabgrass [8]
  herbicidal effect (herbicidal rate), southern crabgrass: 90%
[9]
  Herbicidal rate (%) Lindernia pyxidaria: 90%
  Herbicidal rate (%) Monochoria vaginalis: 90%
Echinochloa crus-galli [10]
  Herbicidal rate (%) Echinochloa crus-galli: 90%
Scirpus juncoides [11]
  Herbicidal rate (%) Scirpus juncoides: 90%
[12]
  Herbicidal rate (%) Lindernia pyxidaria: 90%
  Herbicidal rate (%) Monochoria vaginalis: 90%
Echinochloa crus-galli [13]
  Herbicidal rate (%) Echinochloa crus-galli: 90%
Scirpus juncoides [14]
  Herbicidal rate (%) Scirpus juncoides: 90%

## CSCCn1oc(=O)c(Cc2ccccc2N(C(C)=O)S(=O)(=O)C(F)(F)F)c1C [Compound 1-305]
Echinochloa crus-galli [1]
  herbicidal rate, Echinochloa crus-galli: 90%
Chenopodium album [2]
  herbicidal rate, Chenopodium album: 90%
Amaranthus viridis [3]
  herbicidal rate, Amaranthus viridis: 90%
Southern crabgrass [4]
  herbicidal rate, southern crabgrass: 90%
Echinochloa crus-galli [5]
  herbicidal effect (herbicidal rate), Echinochloa crus-galli: 90%
Chenopodium album [6]
  herbicidal effect (herbicidal rate), Chenopodium album: 40%
Amaranthus viridis [7]
  herbicidal effect (herbicidal rate), Amaranthus viridis: 40%
Southern crabgrass [8]
  herbicidal effect (herbicidal rate), southern crabgrass: 90%
[9]
  Herbicidal rate (%) Lindernia pyxidaria: 90%
  Herbicidal rate (%) Monochoria vaginalis: 90%
Echinochloa crus-galli [10]
  Herbicidal rate (%) Echinochloa crus-galli: 90%
Scirpus juncoides [11]
  Herbicidal rate (%) Scirpus juncoides: 90%
[12]
  Herbicidal rate (%) Lindernia pyxidaria: 90%
  Herbicidal rate (%) Monochoria vaginalis: 90%
Echinochloa crus-galli [13]
  Herbicidal rate (%) Echinochloa crus-galli: 90%
Scirpus juncoides [14]
  Herbicidal rate (%) Scirpus juncoides: 90%

## Cc1c(Cc2ccccc2N(S(=O)(=O)C(F)(F)F)S(=O)(=O)C(F)(F)F)c(=O)on1C(C)C [Compound 1-962]
Echinochloa crus-galli [1]
  herbicidal rate, Echinochloa crus-galli: 90%
Chenopodium album [2]
  herbicidal rate, Chenopodium album: 70%
Amaranthus viridis [3]
  herbicidal rate, Amaranthus viridis: 80%
Southern crabgrass [4]
  herbicidal rate, southern crabgrass: 90%
Echinochloa crus-galli [5]
  herbicidal effect (herbicidal rate), Echinochloa crus-galli: 90%
Chenopodium album [6]
  herbicidal effect (herbicidal rate), Chenopodium album: 50%
Amaranthus viridis [7]
  herbicidal effect (herbicidal rate), Amaranthus viridis: 40%
Southern crabgrass [8]
  herbicidal effect (herbicidal rate), southern crabgrass: 60%
[9]
  Herbicidal rate (%) Lindernia pyxidaria: 60%
  Herbicidal rate (%) Monochoria vaginalis: 80%
Echinochloa crus-galli [10]
  Herbicidal rate (%) Echinochloa crus-galli: 90%
Scirpus juncoides [11]
  Herbicidal rate (%) Scirpus juncoides: 80%
[12]
  Herbicidal rate (%) Lindernia pyxidaria: 100%
  Herbicidal rate (%) Monochoria vaginalis: 100%
Echinochloa crus-galli [13]
  Herbicidal rate (%) Echinochloa crus-galli: 100%
Scirpus juncoides [14]
  Herbicidal rate (%) Scirpus juncoides: 90%
